Results as given in EP0076669A1, “Novel 3-phenyl-1-indanamines, pharmaceutical compositions and methods of preparation” (KEFALAS A/S, priority 1981, dated 1983).
Counter-ions that a name gives are not always drawn.

Tests used:
[1] = test system: tetrabenazine induced ptosis; assay: Tetrabenazine ptosis antagonism; assay type: in vivo; settings: Mus musculus, ip, 0.5 h; i.p., mice; tetrabenazine 40 mg/kg i.p. 30 min after test substance
Protocol: For insoluble substances the doses 0, 1/8, 1/32 and 1/128 of "i.^p. LD50" are used. 3 mice are used for each dose level. Thirty minutes after administration of test substance, tetrabenazine, 40 mg/kg, is injected i.p. Ptosis is evaluated 30 minutes after administration of tetrabenazine, the following rating scale being used: 0 = normal eyes, 1=1/4 closed eyes, 2 = 1/2 closed eyes, 3 = 3/4 closed eyes and 4 = completely closed eyes. Ptosis is evaluated 30 seconds after tilting the cage 3 times. The tilting is carried out in such a way that the animals slide along the floor of the cage.
The results are recorded as % inhibition of ptotic score calculated on the basis of the score of the control group. If ptotic score for the control group is < 10 the test is rejected and another is performed. The registration can also be done as an on line procedure.

potentiation of 5-HTP = assay: 5-HTP potentiation (5-HTP syndrome); assay type: in vivo; settings: Mus musculus, ip, 0.5 h; i.p., mice; 5-HTP 100 mg/kg i.v. 30 min after test substance; read-out: 5-HTP potentation,ED50
Protocol: The test substance is given i.p. or p.o. in the doses 10, 10, 2.5, 0.63 and 0 mg/kg. Three mice are used for each dose level. One of the groups on the highest dose is used as control of the compounds own effect. […] Thirty minutes after administration of test substance, 5-HTP, 100 mg/kg i.v. is given (injection time 5-10 sec.). After this 5-HTP dose the animals remain unaffected. If the animals have been pretreated with a substance, which inhibits the re-uptake of 5-HT, a 5-HTP syndrome will occur. This is characterized by the following symptoms: 1) excitation, 2) tremor, and 3) abduction of the hind limbs.
After the administration of 5-HTP the animals are observed for 15 minutes and each animal is given one point for each symptom present. Thus, the maximal score for a group consisting of 3 mice is 9.
The results are stated as fractions: 0/9, 1/9, 2/9 ..... 8/9, 9/9, where 0, 1, 2 ..... 8, 9 are the number of points per group after the dose in question.

SMILES	ED50 [1]	ED50 (potentiation of 5-HTP)
CN(C)[C@@H]1C[C@@H](c2ccc(F)cc2)c2ccc(F)cc21 (relative stereo) [Lu 13-114-c]	28 µmol/kg	> 130 µmol/kg
CN(C)[C@@H]1C[C@@H](c2ccc(F)cc2)c2ccc(C(F)(F)F)cc21 (relative stereo) [Lu 18-047-c]	166 µmol/kg	
CN(C)[C@@H]1C[C@@H](c2ccc(Cl)c(Cl)c2)c2ccccc21 (relative stereo) [Lu 18-118]	83 µmol/kg	5 µmol/kg
CN(C)[C@@H]1C[C@@H](c2ccc(Cl)cc2Cl)c2ccccc21 (relative stereo) [Lu 18-136-c]	23 µmol/kg	19 µmol/kg
CCN(CC)[C@@H]1C[C@@H](c2ccc(Cl)c(Cl)c2)c2ccccc21 (relative stereo) [Lu 18-187-c]	52 µmol/kg	19 µmol/kg
CN[C@@H]1C[C@@H](c2ccc(Cl)c(Cl)c2)c2ccccc21 (relative stereo) [Lu 19-005-c, trans-N-methyl-3-(3',4'-dichlorophenyl)-I-indanamine]		6.7 µmol/kg
CN[C@@H]1C[C@H](c2ccc(Cl)c(Cl)c2)c2ccccc21 (relative stereo) [Lu 19-006-c, cis-N-methyl-3-(3',4'-dichlorophenyl)-1-indanamine]	5.8 µmol/kg	
CN(C)[C@@H]1C[C@@H](c2ccc(F)cc2)c2ccccc21 (relative stereo) [Lu 19-007-c]	7.8 µmol/kg	45 µmol/kg
CN(C)[C@@H]1C[C@@H](c2ccccc2)c2ccccc21 (relative stereo) [Lu 19-026-c, reference compound]	17 µmol/kg	> 35 µmol/kg
CCN[C@@H]1C[C@@H](c2ccc(Cl)c(Cl)c2)c2ccccc21 (relative stereo) [Lu 19-040-c]	> 7 µmol/kg	26 µmol/kg
CCCN(CCC)[C@@H]1C[C@@H](c2ccc(Cl)c(Cl)c2)c2ccccc21 (relative stereo) [Lu 19-042-c]	> 25 µmol/kg	> 100 µmol/kg
CCCN(CCC)[C@@H]1C[C@H](c2ccc(Cl)c(Cl)c2)c2ccccc21 (relative stereo) [Lu 19-043-c]	> 100 µmol/kg	> 100 µmol/kg
CN(C)[C@@H]1C[C@@H](c2ccc(Br)cc2)c2ccccc21 (relative stereo) [Lu 19-056]	10 µmol/kg	8 µmol/kg
CN(C)[C@@H]1C[C@H](c2ccc(Br)cc2)c2ccccc21 (relative stereo) [Lu 19-057]	3.9 µmol/kg	12 µmol/kg
CN(C)[C@@H]1C[C@@H](c2ccc(C#N)cc2)c2ccc(F)cc21 (relative stereo) [Lu 19-070-c]	45 µmol/kg	25 µmol/kg
Clc1ccc([C@@H]2C[C@@H](NCc3ccccc3)c3ccccc32)cc1Cl (relative stereo) [Lu 19-071-c]	> 25 µmol/kg	> 25 µmol/kg
OCCN[C@@H]1C[C@@H](c2ccc(Cl)c(Cl)c2)c2ccccc21 (relative stereo) [Lu 19-074-c]	75 µmol/kg	270 µmol/kg
Clc1ccc([C@@H]2C[C@@H](NCCc3ccccc3)c3ccccc32)cc1Cl (relative stereo) [Lu 19-078-c]	33 µmol/kg	142 µmol/kg
OCCN(CCO)[C@@H]1C[C@@H](c2ccc(Cl)c(Cl)c2)c2ccccc21 (relative stereo) [Lu 19-082-c]	104 µmol/kg	> 99 µmol/kg
Clc1ccc([C@@H]2C[C@@H](NCC=Cc3ccccc3)c3ccccc32)cc1Cl (relative stereo) [Lu 19-083-o]	> 83 µmol/kg	> 83 µmol/kg
CN[C@@H]1C[C@@H](c2ccc(F)c(Cl)c2)c2ccccc21 (relative stereo) [Lu 19-085-c, trans-N-methyl-3-(3'-chloro-4'-fluorophenyl)-I-indanamine hydrochloride]	51 µmol/kg	47 µmol/kg
CN[C@@H]1C[C@@H](c2ccc(F)cc2)c2ccc(C)cc21 (relative stereo) [Lu 19-092-c]	34 µmol/kg	63 µmol/kg
CN[C@@H]1C[C@H](c2ccccc2)c2ccccc21 (relative stereo) [Lu 19-094]	> 154 µmol/kg	211 µmol/kg
CN(C)[C@@H]1C[C@@H](c2ccc(F)c(F)c2)c2ccccc21 (relative stereo) [Lu 19-095-c]	7.1 µmol/kg	73 µmol/kg
CN[C@@H]1C[C@@H](c2ccc(F)cc2)c2ccc(F)cc21 (relative stereo) [Lu 19-097-c]		94 µmol/kg

SMILES	ED50 [1]	ED50 (potentiation of 5-HTP)
CN[C@@H]1C[C@@H](c2ccc(F)c(F)c2)c2ccccc21 (relative stereo) [Lu 19-098-c]		22 µmol/kg
CN[C@@H]1C[C@@H](c2ccc(Cl)cc2Cl)c2ccccc21 (relative stereo) [Lu 19-099-c]	19 µmol/kg	67 µmol/kg
CN(C)[C@@H]1C[C@@H](c2ccc(F)c(Cl)c2)c2ccccc21 (relative stereo) [Lu 19-100-c, trans N,N-dimethyl-3-(3-chloro-4-fluorophenyi)-1-indanamine]	4 µmol/kg	37 µmol/kg
CN(C)[C@@H]1C[C@H](c2ccc(F)c(Cl)c2)c2ccccc21 (relative stereo) [Lu 19-101-c, cis-N,N-dimethyl-3-(3-chloro-4-fluorophenyl)-1-indanamine, hydrochloride]	24 µmol/kg	51 µmol/kg
CN[C@@H]1C[C@@H](c2ccc(Br)cc2)c2ccccc21 (relative stereo) [Lu 19-102-c]	4 µmol/kg	8.8 µmol/kg
CN[C@@H]1C[C@H](c2ccc(Br)cc2)c2ccccc21 (relative stereo) [Lu 19-103-c]	29 µmol/kg	6.6 µmol/kg
CN[C@@H]1C[C@H](c2ccc(F)c(F)c2)c2ccccc21 (relative stereo) [Lu 19-104-c, cis-N-methyl-3-(3,4-difluorophenyl)-1-indanamine]	23 µmol/kg	63 µmol/kg
CCN(C)[C@@H]1C[C@@H](c2ccc(F)c(Cl)c2)c2ccccc21 (relative stereo) [Lu 19-105-o, trans N-ethyl-N-methyl-N-3-(3'-chloro-4'-fluorophenyl)-indanamine]	12 µmol/kg	95 µmol/kg
CN[C@@H]1C[C@H](c2ccc(F)cc2)c2ccccc21 (relative stereo) [Lu 19-108-c, cis N-methyl-3-(4'-fluorophenyl)-1-indanamine, hydrochloride]	79 µmol/kg	72 µmol/kg
CN[C@@H]1C[C@@H](c2ccc(F)cc2)c2ccccc21 (relative stereo) [Lu 19-109-c]	6.3 µmol/kg	> 36 µmol/kg
CN[C@@H]1C[C@H](c2cccc(Cl)c2)c2ccccc21 (relative stereo) [Lu 19-110-c]	142 µmol/kg	124 µmol/kg
CN[C@@H]1C[C@@H](c2cccc(Cl)c2)c2ccccc21 (relative stereo) [Lu 19-111-c]	45 µmol/kg	92 µmol/kg
CN[C@@H]1C[C@H](c2ccc(Cl)cc2Cl)c2ccccc21 (relative stereo) [Lu 19-113-c]	98 µmol/kg	71 µmol/kg
CN(C)[C@@H]1C[C@@H](c2cccc(Cl)c2)c2ccccc21 (relative stereo) [Lu 19-115-c]	10 µmol/kg	43 µmol/kg
CN(C)[C@@H]1C[C@H](c2cccc(Cl)c2)c2ccccc21 (relative stereo) [Lu 19-116-c]	85 µmol/kg	78 µmol/kg
CN[C@@H]1C[C@@H](c2ccc(Cl)cc2)c2ccccc21 (relative stereo) [Lu 19-119]	> 155 µmol/kg	34 µmol/kg
CN[C@@H]1C[C@H](c2ccc(Cl)cc2)c2ccccc21 (relative stereo) [Lu 19-120-c]	> 34 µmol/kg	23 µmol/kg
CN(C)[C@@H]1C[C@@H](c2ccc(Cl)cc2)c2ccccc21 (relative stereo) [Lu 19-121]	66 µmol/kg	18 µmol/kg
CN(C)[C@@H]1C[C@H](c2ccc(Cl)cc2)c2ccccc21 (relative stereo) [Lu 19-124]	43 µmol/kg	109 µmol/kg
CN[C@@H]1C[C@@H](c2ccc(Cl)c(Cl)c2)c2ccc(F)cc21 (relative stereo) [Lu 19-136-c]	33 µmol/kg	27 µmol/kg
CN[C@@H]1C[C@H](c2ccc(Cl)c(Cl)c2)c2ccc(F)cc21 (relative stereo) [Lu 19-137-c]	15 µmol/kg	34 µmol/kg
CN(C)[C@@H]1C[C@@H](c2ccc(Cl)c(Cl)c2)c2ccc(F)cc21 (relative stereo) [Lu 19-143-c]	> 111 µmol/kg	14 µmol/kg
CN[C@@H]1C[C@@H](c2ccc(Cl)c(Cl)c2)c2ccccc21 (single isomer, unassigned) [Lu 20-042-c, (+) trans N-methyl-3-(3,4-dichlorophenyl)-1-indanamine, hydrochloride]	7.6 µmol/kg	
CNC1CC(c2ccc(Cl)c(Cl)c2)c2ccccc21 (single isomer, unassigned; (-)) [Lu 20-043-c, (-) trans N-methyl-3-(3,4-dichlorophenyl)-1-indanamine, hydrochloride]		16 µmol/kg
